Laboratory results: patent publication US4608390A, “Lipoxygenase inhibiting compounds” (Abbott Laboratories, priority 1985, dated 1986)
pIC50: −log10 of the molar value.

How the values were obtained:
Assay type in all cases: biochemical
5-lipoxygenase = target: T1, 5-lipoxygenase (Rattus norvegicus, UniProt P12527); assay: 5-Lipoxygenase IC50 determination (20,000×G supernatant of homogenized RBL-1 cells, radiolabeled arachidonic acid); conditions: RBL-1 cell 20,000×G supernatant
T1 construct: 20,000×G supernatant from 7.5×10^6 homogenized RBL-1 cells; endogenous in cells; host or cells: RBL-1 cells (20,000xG supernatant of homogenate)
T1 sequence (P12527 1-673): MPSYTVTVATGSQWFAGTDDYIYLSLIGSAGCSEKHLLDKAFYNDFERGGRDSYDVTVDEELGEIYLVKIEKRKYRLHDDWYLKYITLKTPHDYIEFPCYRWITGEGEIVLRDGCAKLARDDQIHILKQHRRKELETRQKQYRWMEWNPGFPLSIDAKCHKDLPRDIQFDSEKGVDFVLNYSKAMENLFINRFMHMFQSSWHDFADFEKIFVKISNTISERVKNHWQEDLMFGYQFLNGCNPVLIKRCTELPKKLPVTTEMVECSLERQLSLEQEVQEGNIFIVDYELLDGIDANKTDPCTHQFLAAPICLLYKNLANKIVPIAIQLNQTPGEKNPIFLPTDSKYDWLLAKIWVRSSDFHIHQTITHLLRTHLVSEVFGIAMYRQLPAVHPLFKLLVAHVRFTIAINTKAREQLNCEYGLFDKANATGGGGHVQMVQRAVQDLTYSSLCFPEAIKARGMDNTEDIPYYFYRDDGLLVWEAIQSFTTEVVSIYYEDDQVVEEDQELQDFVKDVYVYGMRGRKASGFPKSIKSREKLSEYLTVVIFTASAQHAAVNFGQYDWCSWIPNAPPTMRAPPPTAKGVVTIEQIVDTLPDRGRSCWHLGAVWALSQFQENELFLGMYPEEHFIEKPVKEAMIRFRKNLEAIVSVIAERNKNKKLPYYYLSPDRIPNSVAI
Description: Reactions were initiated by the addition of radiolabeled arachidonic acid and terminated by acidification and ether extraction. Reaction products were separated from nonconverted substrate by thin layer chromatography and measured by liquid scintillatiton spectroscopy. Inhibition of 5-lipoxygenase activity was calculated as the ratio of the amounts of product formed in the presence and absence of inhibitor. […]

12-lipoxygenase = target: T2, 12-lipoxygenase (Homo sapiens, UniProt P18054); assay: 12-lipoxygenase inhibition (12-lipoxygenase obtained from human platelets); conditions: for inhibition at 10 µM: read-out: % Inhibition at Indicated Concentration, 12-lipoxygenase, 10 μM; for inhibition at 100 µM: read-out: % Inhibition at Indicated Concentration, 12-lipoxygenase, 100 μM
T2 construct: 12-lipoxygenase obtained from human platelets; from tissue; host or cells: human platelets
T2 sequence (P18054 1-663): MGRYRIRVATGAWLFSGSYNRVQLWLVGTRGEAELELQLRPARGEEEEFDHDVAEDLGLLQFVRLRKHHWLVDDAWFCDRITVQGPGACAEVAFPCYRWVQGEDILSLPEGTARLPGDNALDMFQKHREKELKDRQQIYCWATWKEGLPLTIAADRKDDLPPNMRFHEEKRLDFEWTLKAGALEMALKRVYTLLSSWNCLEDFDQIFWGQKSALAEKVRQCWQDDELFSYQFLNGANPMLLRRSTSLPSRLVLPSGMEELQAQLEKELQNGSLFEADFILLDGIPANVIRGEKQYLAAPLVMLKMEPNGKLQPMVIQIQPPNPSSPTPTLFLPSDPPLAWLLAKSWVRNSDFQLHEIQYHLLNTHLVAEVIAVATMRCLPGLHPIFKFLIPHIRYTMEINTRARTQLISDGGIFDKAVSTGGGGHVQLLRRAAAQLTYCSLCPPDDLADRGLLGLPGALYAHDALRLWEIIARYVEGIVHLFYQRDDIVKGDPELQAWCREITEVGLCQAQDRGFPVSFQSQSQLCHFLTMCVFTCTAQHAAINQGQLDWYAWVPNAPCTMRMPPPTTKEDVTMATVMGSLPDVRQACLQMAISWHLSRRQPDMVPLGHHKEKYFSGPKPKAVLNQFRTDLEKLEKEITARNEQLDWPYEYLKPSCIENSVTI
Description: (§1) The compounds of this invention are potent inhibitors of 5-, 12- and 15-lipoxygenase. An assay to determine 5-lipoxygenase activity was performed in incubations containing various concentrations of the test compound and the 20,000×G supernatant from 7.5×10^6 homogenized RBL-1 cells. Reactions were initiated by the addition of radiolabeled arachidonic acid and terminated by acidification and ether extraction. Reaction products were separated from nonconverted substrate by thin layer chromatography and measured by liquid scintillatiton spectroscopy. Inhibition of 5-lipoxygenase activity was calculated as the ratio of the amounts of product formed in the presence and absence of inhibitor.
(§2) The inhibitory activities of the compounds of this invention against 12- and 15-lipoxygenase can be determined in the foregoing assay in which 12-lipoxygenase obtained from human platelets, or 15-lipoxygenase obtained from soybean, is substituted for the 5-lipoxygenase-containing cell supernatant fraction.

15-lipoxygenase = target: T3, 15-lipoxygenase (Glycine max, UniProt P08170); assay: 15-lipoxygenase inhibition (15-lipoxygenase obtained from soybean); conditions: for inhibition at 10 µM: read-out: % Inhibition at Indicated Concentration, 15-lipoxygenase, 10 μM; for inhibition at 100 µM: read-out: % Inhibition at Indicated Concentration, 15-lipoxygenase, 100 μM
T3 construct: 15-lipoxygenase obtained from soybean; from tissue; host or cells: soybean
T3 sequence (P08170 1-839): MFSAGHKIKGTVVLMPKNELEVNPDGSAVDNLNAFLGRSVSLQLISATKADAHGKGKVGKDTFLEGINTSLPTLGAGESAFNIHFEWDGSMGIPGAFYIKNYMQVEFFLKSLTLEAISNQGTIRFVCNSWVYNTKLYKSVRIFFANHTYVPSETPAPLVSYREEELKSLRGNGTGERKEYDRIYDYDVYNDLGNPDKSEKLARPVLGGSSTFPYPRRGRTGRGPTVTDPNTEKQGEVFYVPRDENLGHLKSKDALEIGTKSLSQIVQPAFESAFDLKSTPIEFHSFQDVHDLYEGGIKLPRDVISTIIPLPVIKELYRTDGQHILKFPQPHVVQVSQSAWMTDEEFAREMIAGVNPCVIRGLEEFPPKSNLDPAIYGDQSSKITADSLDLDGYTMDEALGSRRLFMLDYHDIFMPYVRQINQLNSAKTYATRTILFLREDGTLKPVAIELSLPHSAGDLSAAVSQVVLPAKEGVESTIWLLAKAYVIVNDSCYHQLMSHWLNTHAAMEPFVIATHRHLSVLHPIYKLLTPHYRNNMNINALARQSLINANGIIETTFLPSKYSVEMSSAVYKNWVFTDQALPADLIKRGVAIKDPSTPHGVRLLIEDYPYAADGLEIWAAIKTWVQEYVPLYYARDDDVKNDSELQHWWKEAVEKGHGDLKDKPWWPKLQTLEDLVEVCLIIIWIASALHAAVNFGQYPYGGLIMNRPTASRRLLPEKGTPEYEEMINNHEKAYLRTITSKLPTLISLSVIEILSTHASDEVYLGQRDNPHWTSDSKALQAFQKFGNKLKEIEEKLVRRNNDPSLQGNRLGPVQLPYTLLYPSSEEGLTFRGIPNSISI
Description: as §1, §2

Compound	pIC50 (5-lipoxygenase)	inhibition at 10 µM (12-lipoxygenase)	inhibition at 100 µM (12-lipoxygenase)	inhibition at 10 µM (15-lipoxygenase)	inhibition at 100 µM (15-lipoxygenase)
CC(=Cc1ccc2ccccc2c1)C(=O)NO [Example 6, 2-methyl-3-(2-naphthyl)acrylohydroxamic acid]	–	–	–	45%	100%
CN(O)C(=O)C(=Cc1ccc2ccccc2c1)c1ccccc1 [Example 8, N-methyl-3-(2-naphthyl)-2-phenyl acrylohydroxamic acid]	–	–	–	38%	62%
O=C(C=Cc1ccc2ccccc2c1)N(O)C1CCCCC1 [Example 4, N-cyclohexyl 3-(2-naphthyl)acrylohydroxamic acid]	6.59	66%	–	43%	83%
CC(C)N(O)C(=O)C=Cc1ccc2ccccc2c1 [Example 3, N-isopropyl 3-(2-naphthyl)acrylohydroxamic acid]	6.82	75%	84%	31%	63%
CC(=Cc1ccc2ccccc2c1)C(=O)N(C)O [Example 7, 2,N-dimethyl-3-(2-naphthyl)acrylohydroxamic acid]	–	–	–	37%	88%
CN(O)C(=O)C(=Cc1ccc2ccccc2c1)c1ccc(Cl)cc1 [Example 10, N-methyl-3-(2-naphthyl)-2-(4-chlorophenyl)acrylohydroxamic acid]	–	98%	–	–	–
O=C(C=Cc1ccc2ccccc2c1)NO [Example 1, 3-(2-naphthyl)acrylohydroxamic acid]	–	92%	100%	2%	19%
CC(=CC(=O)N(C)O)c1ccc2ccccc2c1 [Example 12, 3,N-dimethyl-3-(2-naphthyl)acrylohydroxamic acid]	–	–	–	37%	88%
CN(O)C(=O)C=Cc1ccc2ccccc2c1 [Example 2, N-methyl 3-(2-naphthyl)acrylohydroxamic acid]	6.59	88%	–	43%	83%
O=C(C=Cc1ccc2ccccc2c1)N(O)c1ccccc1 [Example 5, N-phenyl 3-(2-naphthyl)acrylohydroxamic acid]	6.70	82%	–	22%	30%

Second part, the compound after the results:

pIC50 (5-lipoxygenase)	inhibition at 10 µM (12-lipoxygenase)	inhibition at 100 µM (12-lipoxygenase)	inhibition at 10 µM (15-lipoxygenase)	inhibition at 100 µM (15-lipoxygenase)	Compound
6.70	82%	100%	29%	88%	CN(O)C(=O)C=Cc1cccc2ccccc12 [Example 15, N-methyl-3-(1-naphthyl)acrylohydroxamic acid]
5.54	82%	99%	19%	33%	Cc1ccc2ccc(CCC(=O)NO)cc2c1 [Example 19, 3-(7-methyl-2-napthalene)propiohydroxamic acid]
6.89	–	–	–	–	CN(O)C(=O)C=Cc1ccc([N+](=O)[O-])c2ccccc12 [Example 16, N-methyl-3-(4-nitro-1-naphthyl)acrylohydroxamic acid]
5.80	–	–	–	–	O=C(CCC/C=C\c1ccc2ccccc2c1)NO [Example 17, Z-6-(2-naphthyl)hex-5-enohydroxamic acid]
–	81%	97%	19%	49%	CN(O)C(=O)C=Cc1cc2ccccc2cc1[N+](=O)[O-] [Example 13, N-methyl-3-(3-nitro-2-naphthyl)acrylohydroxamic acid]
5.01	–	–	12%	31%	O=C(CCc1ccc2ccccc2c1)NO [Example 18, 3-(2-naphthyl)propiohydroxamic acid]
6.29	93%	98%	59%	65%	CCCCCC=Cc1ccc2ccc(C=CC(=O)N(C)O)cc2c1 [Example 14, N-methyl-3-[7-(1-heptenyl)-2-naphthyl]acrylohydroxamic acid]
